Experimental data: patent publication US9156845B2, “4-(substituted amino)-7H-pyrrolo[2,3-d] pyrimidines as LRRK2 inhibitors” (Pfizer Inc., priority 2012, dated 2015)
pIC50: −log10 of the molar value.

Tests used:
[1] = target: mutant G2019S LRRK2 (Homo sapiens (Human), UniProt Q5S007, G2019S); test: LRRK2 Lantha Screen kinase assay, mutant enzyme; format: biochemical; conditions: geometric mean of 2-5 determinations unless otherwise indicated (a: >=6 determinations; b: single determination)
Method: LRRK2 kinase activity was measured using Lantha Screen technology from Invitrogen. GST-tagged truncated LRRK2 from Invitrogen (Cat # PV4874) was incubated with a fluorescein-labeled peptide substrate based upon ezrin/radixin/moesin (ERM), also known as LRRKtide (Invitrogen cat #PR8976A), in the presence of a dose response of compound. Upon completion, the assay was stopped and detected with a terbium labeled anti-phospho-ERM antibody (Invitrogen, cat #PR8975A). […] Aliquots (3.5 μL) of the 100% DMSO dose response were mixed with 46.5 μL water then 1 μL of this mixture was added to the 3 μL substrate mix in the 384-well plate. The kinase reaction was started with 3 μL of a working solution of LRRK2 enzyme at a concentration of 4 μg/mL. […] The reaction was allowed to progress at room temperature for two hours and then stopped with the addition of 7 μL of detection buffer (20 mM Tris pH 7.6, 0.01% NP-40, 0.02% NaN3, 6 mM EDTA with 2 nM terbium labeled anti-phospho-ERM).
All final concentrations of substrate ATP and enzyme were the same.

[2] = tested on: AMPKa1, AMPKa2; test: ActivX kinase probe assay (human PBMC); format: binding
[3] = target: BTK (Homo sapiens (Human), UniProt Q06187); test: ActivX kinase probe assay (human PBMC); format: binding; conditions: BTK, read-out: percent inhibition
[4] = target: CaMK2g (Homo sapiens (Human), UniProt Q13555); test: ActivX kinase probe assay (human PBMC); format: binding; conditions: CaMK2g, read-out: percent inhibition
[5] = target: CDK2 (Homo sapiens (Human), UniProt P24941); test: ActivX kinase probe assay (human PBMC); format: binding; conditions: CDK2, read-out: percent inhibition
[6] = target: CDK5 (Homo sapiens (Human), UniProt Q00535); test: ActivX kinase probe assay (human PBMC); format: binding; conditions: CDK5, read-out: percent inhibition
[7] = target: FES (Homo sapiens (Human), UniProt P07332); test: ActivX kinase probe assay (human PBMC); format: binding; conditions: FES, read-out: percent inhibition
[8] = target: FGR (Homo sapiens (Human), UniProt P09769); test: ActivX kinase probe assay (human PBMC); format: binding; conditions: FGR, read-out: percent inhibition
[9] = target: FRAP (Homo sapiens (Human), UniProt P42345); test: ActivX kinase probe assay (human PBMC); format: binding; conditions: FRAP, read-out: percent inhibition
[10] = target: IRAK1 (Homo sapiens (Human), UniProt P51617); test: ActivX kinase probe assay (human PBMC); format: binding; conditions: IRAK1, read-out: percent inhibition
[11] = target: JAK1 (Homo sapiens (Human), UniProt P23458); test: ActivX kinase probe assay (human PBMC); format: binding; conditions: JAK1, read-out: percent inhibition
[12] = target: JAK1 domain2 (Homo sapiens (Human), UniProt P23458); test: ActivX kinase probe assay (human PBMC); format: binding; conditions: JAK1 domain2, read-out: percent inhibition
[13] = target: JAK3 domain2 (Homo sapiens (Human), UniProt P52333); test: ActivX kinase probe assay (human PBMC); format: binding; conditions: JAK3 domain2, read-out: percent inhibition
[14] = target: MAP2K1 (Homo sapiens (Human), UniProt Q02750); test: ActivX kinase probe assay (human PBMC); format: binding; conditions: MAP2K1, read-out: percent inhibition
[15] = target: MAP3K3 (Homo sapiens (Human), UniProt Q99759); test: ActivX kinase probe assay (human PBMC); format: binding; conditions: MAP3K3, read-out: percent inhibition
[16] = target: MARK2 (Homo sapiens (Human), UniProt Q7KZI7); test: ActivX kinase probe assay (human PBMC); format: binding; conditions: MARK2, read-out: percent inhibition
[17] = target: MLKL (Homo sapiens (Human), UniProt Q8NB16); test: ActivX kinase probe assay (human PBMC); format: binding; conditions: MLKL, read-out: percent inhibition
[18] = tested on: MST4, YSK1; test: ActivX kinase probe assay (human PBMC); format: binding
[19] = target: NDR1 (Homo sapiens (Human), UniProt Q15208); test: ActivX kinase probe assay (human PBMC); format: binding; conditions: NDR1, read-out: percent inhibition
[20] = target: NEK7 (Homo sapiens (Human), UniProt Q8TDX7); test: ActivX kinase probe assay (human PBMC); format: binding; conditions: NEK7, read-out: percent inhibition
[21] = target: NuaK2 (Homo sapiens (Human), UniProt Q9H093); test: ActivX kinase probe assay (human PBMC); format: binding; conditions: NuaK2, read-out: percent inhibition
[22] = tested on: PCTAIRE2, PCTAIRE3; test: ActivX kinase probe assay (human PBMC); format: binding
[23] = target: PIK3CB (Homo sapiens (Human), UniProt P42338); test: ActivX kinase probe assay (human PBMC); format: binding; conditions: PIK3CB, read-out: percent inhibition
[24] = target: PIK3CD (Homo sapiens (Human), UniProt O00329); test: ActivX kinase probe assay (human PBMC); format: binding; conditions: PIK3CD, read-out: percent inhibition
[25] = tested on: PITSLRE; test: ActivX kinase probe assay (human PBMC); format: binding
[26] = target: PKD2 (Homo sapiens (Human), UniProt Q9BZL6); test: ActivX kinase probe assay (human PBMC); format: binding; conditions: PKD2, read-out: percent inhibition
[27] = target: PKR (Homo sapiens (Human), UniProt P19525); test: ActivX kinase probe assay (human PBMC); format: binding; conditions: PKR, read-out: percent inhibition
[28] = target: PRPK (Homo sapiens (Human), UniProt Q96S44); test: ActivX kinase probe assay (human PBMC); format: binding; conditions: read-out: percent inhibition
Method: Certain of the compounds of the present invention were assessed for kinase selectivity using a commercially available ActiveX targeted kinase probe in which the tissue employed was human peripheral blood mononuclear cells (PBMC). The test compounds were provided to ActivX Biosciences, Inc., 11025 North Torrey Pines Road, Suite 120; LaJolla, Calif., USA 92037. The compounds were run in the ActivX proprietary kinase assay and results were obtained at compound test concentrations of 1 μM (columns 2, 4 and 6) and 0.1 μM (columns 3, 5 and 7). The results as percent inhibition obtained for the compounds of Examples 1, 4 and 217 are provided below in Table 3.

[29] = tested on: RSK1, RSK2, RSK3 domain1; test: ActivX kinase probe assay (human PBMC); format: binding
[30] = target: TAO2 (Homo sapiens (Human), UniProt Q9UL54); test: ActivX kinase probe assay (human PBMC); format: binding; conditions: TAO2, read-out: percent inhibition
[31] = target: ULK3 (Homo sapiens (Human), UniProt Q6PHR2); test: ActivX kinase probe assay (human PBMC); format: binding; conditions: ULK3, read-out: percent inhibition
[32] = target: ZC2/TNIK (Homo sapiens (Human), UniProt Q9UKE5); test: ActivX kinase probe assay (human PBMC); format: binding; conditions: ZC2/TNIK, read-out: percent inhibition

MAP3K3, sequence (Q99759 whole entry): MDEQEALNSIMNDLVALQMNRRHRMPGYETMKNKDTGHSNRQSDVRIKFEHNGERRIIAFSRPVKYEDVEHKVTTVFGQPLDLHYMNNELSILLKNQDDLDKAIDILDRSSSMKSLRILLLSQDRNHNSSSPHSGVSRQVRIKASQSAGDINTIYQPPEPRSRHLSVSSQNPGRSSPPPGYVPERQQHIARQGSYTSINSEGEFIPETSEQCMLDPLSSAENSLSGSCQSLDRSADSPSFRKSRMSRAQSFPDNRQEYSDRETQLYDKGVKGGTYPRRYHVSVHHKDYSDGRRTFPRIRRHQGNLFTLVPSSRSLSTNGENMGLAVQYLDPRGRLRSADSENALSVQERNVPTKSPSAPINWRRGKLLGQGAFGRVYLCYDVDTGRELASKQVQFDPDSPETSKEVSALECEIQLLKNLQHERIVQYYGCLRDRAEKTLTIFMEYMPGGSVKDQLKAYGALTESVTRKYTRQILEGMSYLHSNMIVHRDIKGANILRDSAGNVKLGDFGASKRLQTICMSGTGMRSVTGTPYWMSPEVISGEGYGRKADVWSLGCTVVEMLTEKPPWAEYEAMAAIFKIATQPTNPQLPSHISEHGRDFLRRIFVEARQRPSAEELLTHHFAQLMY
ULK3, sequence (Q6PHR2 whole entry): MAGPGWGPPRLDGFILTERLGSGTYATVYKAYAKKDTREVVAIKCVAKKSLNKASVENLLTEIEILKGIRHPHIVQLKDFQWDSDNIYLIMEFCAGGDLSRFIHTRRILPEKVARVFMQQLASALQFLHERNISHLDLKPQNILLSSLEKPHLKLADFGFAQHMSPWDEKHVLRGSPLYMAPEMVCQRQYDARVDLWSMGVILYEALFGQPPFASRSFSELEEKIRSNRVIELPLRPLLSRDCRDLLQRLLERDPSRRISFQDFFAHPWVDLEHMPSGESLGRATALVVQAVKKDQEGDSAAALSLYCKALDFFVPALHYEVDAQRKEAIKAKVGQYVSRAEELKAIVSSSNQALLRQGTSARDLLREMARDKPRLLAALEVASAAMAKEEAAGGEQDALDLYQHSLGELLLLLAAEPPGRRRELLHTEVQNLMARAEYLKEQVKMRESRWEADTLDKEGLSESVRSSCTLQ
CDK5, sequence (Q00535 whole entry): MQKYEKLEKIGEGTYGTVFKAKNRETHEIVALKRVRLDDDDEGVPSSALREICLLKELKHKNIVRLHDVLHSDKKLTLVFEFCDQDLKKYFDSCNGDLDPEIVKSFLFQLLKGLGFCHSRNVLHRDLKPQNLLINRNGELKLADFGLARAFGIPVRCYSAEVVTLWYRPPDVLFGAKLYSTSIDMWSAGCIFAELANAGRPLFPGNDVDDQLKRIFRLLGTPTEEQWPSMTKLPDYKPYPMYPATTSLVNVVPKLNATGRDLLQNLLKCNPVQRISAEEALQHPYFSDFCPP
CaMK2g, sequence (Q13555 whole entry): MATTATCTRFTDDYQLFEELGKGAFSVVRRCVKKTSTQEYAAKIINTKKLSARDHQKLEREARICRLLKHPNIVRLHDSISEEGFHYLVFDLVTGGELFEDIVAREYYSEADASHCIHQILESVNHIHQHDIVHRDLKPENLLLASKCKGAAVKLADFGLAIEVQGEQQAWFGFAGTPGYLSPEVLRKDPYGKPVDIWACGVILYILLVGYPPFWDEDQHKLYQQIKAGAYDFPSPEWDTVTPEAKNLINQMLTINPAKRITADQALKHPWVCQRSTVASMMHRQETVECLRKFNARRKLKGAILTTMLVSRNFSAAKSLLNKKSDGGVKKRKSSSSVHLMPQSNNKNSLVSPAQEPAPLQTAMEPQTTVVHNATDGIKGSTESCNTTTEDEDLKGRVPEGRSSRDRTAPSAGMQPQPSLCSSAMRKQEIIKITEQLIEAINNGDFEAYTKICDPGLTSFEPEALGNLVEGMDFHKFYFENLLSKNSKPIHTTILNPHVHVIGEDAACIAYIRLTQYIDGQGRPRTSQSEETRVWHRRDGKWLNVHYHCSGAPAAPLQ
PKR, sequence (P19525 whole entry): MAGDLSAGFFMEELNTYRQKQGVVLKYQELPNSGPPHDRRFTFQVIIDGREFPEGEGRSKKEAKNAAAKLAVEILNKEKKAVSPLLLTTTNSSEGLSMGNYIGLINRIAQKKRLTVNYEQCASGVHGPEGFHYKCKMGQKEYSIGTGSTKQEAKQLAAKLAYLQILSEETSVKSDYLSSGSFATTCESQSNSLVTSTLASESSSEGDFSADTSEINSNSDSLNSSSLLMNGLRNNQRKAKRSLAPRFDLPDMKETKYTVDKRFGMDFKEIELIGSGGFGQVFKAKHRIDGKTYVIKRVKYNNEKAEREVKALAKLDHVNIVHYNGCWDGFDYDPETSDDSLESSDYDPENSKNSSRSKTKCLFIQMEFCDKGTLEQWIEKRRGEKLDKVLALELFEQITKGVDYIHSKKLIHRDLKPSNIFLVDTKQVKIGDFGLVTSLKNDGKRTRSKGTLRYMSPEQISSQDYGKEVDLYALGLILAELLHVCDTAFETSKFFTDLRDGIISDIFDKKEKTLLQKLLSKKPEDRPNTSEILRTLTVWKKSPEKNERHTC
NuaK2, sequence (Q9H093 whole entry): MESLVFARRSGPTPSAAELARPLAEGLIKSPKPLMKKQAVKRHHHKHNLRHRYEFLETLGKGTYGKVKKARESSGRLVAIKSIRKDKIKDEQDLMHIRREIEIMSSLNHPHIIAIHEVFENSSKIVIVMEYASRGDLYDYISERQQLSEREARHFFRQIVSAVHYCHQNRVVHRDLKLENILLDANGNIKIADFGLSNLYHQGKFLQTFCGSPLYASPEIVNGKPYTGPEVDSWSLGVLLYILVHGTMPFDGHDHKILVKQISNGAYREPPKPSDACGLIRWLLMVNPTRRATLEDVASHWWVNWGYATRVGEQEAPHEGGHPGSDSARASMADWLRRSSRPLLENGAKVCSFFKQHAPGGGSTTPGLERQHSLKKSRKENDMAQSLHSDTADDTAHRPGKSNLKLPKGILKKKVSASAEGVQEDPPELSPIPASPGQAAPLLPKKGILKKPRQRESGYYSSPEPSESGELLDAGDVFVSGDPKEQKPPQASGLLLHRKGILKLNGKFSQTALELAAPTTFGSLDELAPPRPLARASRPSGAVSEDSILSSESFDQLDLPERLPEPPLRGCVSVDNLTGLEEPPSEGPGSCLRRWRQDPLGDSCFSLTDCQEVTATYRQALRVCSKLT
FES, sequence (P07332 whole entry): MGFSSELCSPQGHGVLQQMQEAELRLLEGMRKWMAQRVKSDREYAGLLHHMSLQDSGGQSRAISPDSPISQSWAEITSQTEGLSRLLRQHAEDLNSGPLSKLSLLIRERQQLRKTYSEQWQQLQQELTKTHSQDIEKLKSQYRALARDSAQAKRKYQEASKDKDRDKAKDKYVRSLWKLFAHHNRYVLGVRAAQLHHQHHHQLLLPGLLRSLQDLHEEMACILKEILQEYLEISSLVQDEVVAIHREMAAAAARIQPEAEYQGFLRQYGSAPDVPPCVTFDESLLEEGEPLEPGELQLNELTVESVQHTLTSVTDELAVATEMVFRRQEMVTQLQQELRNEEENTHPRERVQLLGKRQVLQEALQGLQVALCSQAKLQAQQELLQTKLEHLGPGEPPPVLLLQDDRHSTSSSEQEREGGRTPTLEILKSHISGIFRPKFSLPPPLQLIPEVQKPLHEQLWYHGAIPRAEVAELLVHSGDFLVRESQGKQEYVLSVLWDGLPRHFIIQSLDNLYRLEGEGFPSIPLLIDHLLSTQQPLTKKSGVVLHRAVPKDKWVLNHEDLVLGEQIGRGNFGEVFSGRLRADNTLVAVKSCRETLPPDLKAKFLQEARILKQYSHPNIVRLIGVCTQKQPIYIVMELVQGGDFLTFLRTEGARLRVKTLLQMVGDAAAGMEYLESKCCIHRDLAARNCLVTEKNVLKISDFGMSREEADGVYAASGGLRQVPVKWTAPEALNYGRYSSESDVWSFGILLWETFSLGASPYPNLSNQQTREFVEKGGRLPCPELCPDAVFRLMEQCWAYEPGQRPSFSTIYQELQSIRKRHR
PKD2, sequence (Q9BZL6 whole entry): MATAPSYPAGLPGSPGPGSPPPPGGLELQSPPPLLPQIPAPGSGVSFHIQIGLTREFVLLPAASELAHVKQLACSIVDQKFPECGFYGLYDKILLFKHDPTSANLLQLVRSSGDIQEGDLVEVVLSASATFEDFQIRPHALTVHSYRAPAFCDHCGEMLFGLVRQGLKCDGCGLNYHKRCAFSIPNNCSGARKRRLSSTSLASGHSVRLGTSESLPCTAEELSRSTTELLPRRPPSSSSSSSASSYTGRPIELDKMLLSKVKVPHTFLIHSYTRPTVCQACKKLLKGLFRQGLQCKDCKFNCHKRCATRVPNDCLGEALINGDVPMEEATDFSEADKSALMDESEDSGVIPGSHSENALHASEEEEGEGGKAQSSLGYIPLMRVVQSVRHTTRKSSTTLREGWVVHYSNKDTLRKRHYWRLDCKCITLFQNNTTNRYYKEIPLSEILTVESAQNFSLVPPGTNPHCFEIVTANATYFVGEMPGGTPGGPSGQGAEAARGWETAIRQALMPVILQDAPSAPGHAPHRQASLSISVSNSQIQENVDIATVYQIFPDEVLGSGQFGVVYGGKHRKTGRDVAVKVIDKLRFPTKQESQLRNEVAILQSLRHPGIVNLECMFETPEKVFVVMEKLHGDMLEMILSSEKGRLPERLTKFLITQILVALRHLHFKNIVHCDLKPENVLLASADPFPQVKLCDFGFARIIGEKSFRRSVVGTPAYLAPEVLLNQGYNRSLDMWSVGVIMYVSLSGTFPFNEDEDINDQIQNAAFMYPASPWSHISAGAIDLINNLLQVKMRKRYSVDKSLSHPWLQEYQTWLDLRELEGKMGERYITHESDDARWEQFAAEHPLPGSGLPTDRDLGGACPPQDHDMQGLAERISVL

## Cn1cc(-c2c[nH]c3ncnc(N4CCOCC4)c23)cc1C#N [Example 217, 1-methyl-4-[4-(morpholin-4-yl)-7H-pyrrolo[2,3-d]pyrimidin-5-yl]-1H-pyrrole-2-carbonitrile]
[1]
  pIC50: 7.89
[2]; 0.1 μM
  percent inhibition: 5.7%
[2]; 1 μM
  percent inhibition: 16.5%
[3]; 0.1 μM
  inhibition at 0.1 µM: 24.3%
[3]; 1 μM
  inhibition at 1 µM: 8.5%
[4]; 0.1 μM
  inhibition at 0.1 µM: 4.3%
[4]; 1 μM
  inhibition at 1 µM: 18.7%
[5]; 0.1 μM
  inhibition at 0.1 µM: 3.6%
[5]; 1 μM
  inhibition at 1 µM: 16.5%
[6]; 0.1 μM
  inhibition at 0.1 µM: 0.5%
[6]; 1 μM
  inhibition at 1 µM: 7.9%
[7]; 0.1 μM
  inhibition at 0.1 µM: 8.4%
[7]; 1 μM
  inhibition at 1 µM: 6.2%
[8]; 0.1 μM
  inhibition at 0.1 µM: -1.2%
[8]; 1 μM
  inhibition at 1 µM: -0.5%
[9]; 0.1 μM
  inhibition at 0.1 µM: 0.7%
[9]; 1 μM
  inhibition at 1 µM: 0.9%
[10]; 0.1 μM
  inhibition at 0.1 µM: -1.7%
[10]; 1 μM
  inhibition at 1 µM: 7.5%
[11]; 0.1 μM
  inhibition at 0.1 µM: -3%
[11]; 1 μM
  inhibition at 1 µM: 11.4%
[12]; 0.1 μM
  inhibition at 0.1 µM: 7.4%
[12]; 1 μM
  inhibition at 1 µM: 10.1%
[13]; 0.1 μM
  inhibition at 0.1 µM: -7.8%
[13]; 1 μM
  inhibition at 1 µM: 4.9%
[14]; 0.1 μM
  inhibition at 0.1 µM: 17.2%
[14]; 1 μM
  inhibition at 1 µM: -1.5%
[15]; 0.1 μM
  inhibition at 0.1 µM: -3.4%
[15]; 1 μM
  inhibition at 1 µM: -6.7%
[16]; 0.1 μM
  inhibition at 0.1 µM: -5%
[16]; 1 μM
  inhibition at 1 µM: 13.1%
[17]; 0.1 μM
  inhibition at 0.1 µM: 2.5%
[17]; 1 μM
  inhibition at 1 µM: -3.3%
[18]; 0.1 μM
  percent inhibition: 5.3%
[18]; 1 μM
  percent inhibition: 9.9%
[19]; 0.1 μM
  inhibition at 0.1 µM: 16.3%
[19]; 1 μM
  inhibition at 1 µM: -17.7%
[20]; 0.1 μM
  inhibition at 0.1 µM: -9%
[20]; 1 μM
  inhibition at 1 µM: -2.3%
[21]; 0.1 μM
  inhibition at 0.1 µM: 1.3%
[21]; 1 μM
  inhibition at 1 µM: 24.9%
[22]; 0.1 μM
  percent inhibition: −2.6%
[22]; 1 μM
  percent inhibition: 15.1%
[23]; 0.1 μM
  inhibition at 0.1 µM: -5.3%
[23]; 1 μM
  inhibition at 1 µM: -29.7%
[24]; 0.1 μM
  inhibition at 0.1 µM: -0.4%
[24]; 1 μM
  inhibition at 1 µM: 10%
[25]; 0.1 μM
  percent inhibition: −6.7%
[25]; 1 μM
  percent inhibition: 6.6%
[26]; 0.1 μM
  inhibition at 0.1 µM: 5.8%
[26]; 1 μM
  inhibition at 1 µM: 4.5%
[27]; 0.1 μM
  inhibition at 0.1 µM: -7.7%
[27]; 1 μM
  inhibition at 1 µM: 1.8%
[28]; 0.1 μM
  inhibition at 0.1 µM: 2.6%
[28]; 1 μM
  inhibition at 1 µM: 12.5%
[29]; 0.1 μM
  percent inhibition: 5.0%
[29]; 1 μM
  percent inhibition: 48.5%
[30]; 0.1 μM
  inhibition at 0.1 µM: -20.2%
[30]; 1 μM
  inhibition at 1 µM: -18.4%
[31]; 0.1 μM
  inhibition at 0.1 µM: -8.6%
[31]; 1 μM
  inhibition at 1 µM: 17.4%
[32]; 0.1 μM
  inhibition at 0.1 µM: -10.7%
[32]; 1 μM
  inhibition at 1 µM: 3.9%
